Test results as given in PubChem BioAssay AID2305 (GlaxoSmithKline (GSK), 2010).
Several values for one entry are separate records, joined by “and”; a condition that tells them apart may be missing. Equal entries are not always repeated.

These compounds were tested on P. falciparum 3D7 growth, pLDH absorbance (assay: P. falciparum 3D7 growth inhibition, dose response, strain 3D7 (AID 2305)).

In order of rising IC50:
1. CC1(C)N=C(N)N=C(N)C1c1ccc(Cl)c(Cl)c1 (stereo not drawn)  0.03 µM
2. CC(C)n1cc2c(ccc3nc(N)nc(N)c32)n1  0.04 µM
3. CCNc1cc(C(=O)N[C@@H](Cc2ccccc2)[C@H](O)CNC(CC)c2cccc(Cl)c2)cc(N2CCCCS2(=O)=O)c1 (stereo partly drawn)  0.05 µM
4. CCOC(=O)NC1=NC(C)(C)N(OCCCOc2ccc(C)cc2C)C(NC(=O)OCC)=N1  0.13 µM
5. Cc1[nH]c(C)c(-c2ccc(Oc3ccc(OC(F)(F)F)cc3)cc2)c(=O)c1I  0.13 µM
6. Cc1cc(N2CCCC2)nc(Nc2ccc(NC(=O)Nc3ccccc3)cc2)n1  0.16 µM
7. CC1CCN(Cc2c(O)ccc3c(=O)c(-c4nc5ccccc5s4)c(N)oc23)CC1  0.16 µM
8. CCN(C)C(=O)n1ncc2c3c(N)nc(N)nc3ccc21  0.18 µM
9. Cc1ccc(Cl)cc1NC(=O)c1c(-c2ccccc2Cl)noc1C  0.19 µM
10. CCCN(CCC)CCCN(CCCN(CCC)CCC)c1cc(C)nc(Nc2ccc3cc(Br)ccc3c2)n1  0.21 µM
11. O=C(Nc1ccc(-c2nc3ccccc3[nH]2)cc1)c1cccc([N+](=O)[O-])c1  0.22 µM
12. COc1cc(Cc2cnc(N)nc2N)cc(OCCCCCC(=O)O)c1OC  0.23 µM
13. CCn1c(SCc2ccccc2)nc2c1c(=O)[nH]c(=O)n2C  0.24 µM
14. O=[N+]([O-])c1cccc(CNCC2CCN(Cc3ccc(C(F)(F)F)cc3)CC2)c1  0.25 µM
15. Cc1[nH]c(C)c(-c2ccc(-c3ccc(OC(F)(F)F)cc3)nc2)c(=O)c1Br  0.25 µM
16. CC1CN(Cc2ccccc2)CCN1c1ccc(NC(=O)c2cccs2)cc1 (stereo not drawn)  0.28 µM
17. CCCCCCN=C(N)c1ccc(OCCCCCOc2ccc(C(N)=NCCCCCC)cc2)cc1  0.31 µM
18. O=C(/C=C/c1ccc(Cl)c(Cl)c1)N1CCC(CN2CCC(c3c(-c4ccccc4)[nH]c4ccccc34)CC2)CC1  0.34 µM
19. COc1nc2c(CCN3CC[C@H](NCc4cc(C#N)c5c(c4)CCO5)[C@H](O)C3)ccnc2cc1F  0.35 µM
20. CCOc1cc(C)ccc1C1CCN(CCCCNC(=O)c2ccc(NC(=O)c3cc(Cl)cc(Cl)c3)cc2)CC1  0.36 µM
21. COc1ccccc1C1CCN(C2CCC(NC(=O)c3cc(-c4ccc(Cl)cc4)cs3)CC2)CC1 (stereo not drawn)  0.38 µM
22. CC(=O)Nc1ncc(C(=O)Nc2cccc(-c3ccc(-c4nc5ccc(C(F)(F)F)cc5[nH]4)s3)c2)s1  0.4 µM
23. COc1c(C2CCN(CCCCNC(=O)c3ccc(-c4ccc(C#N)cc4)cc3)CC2)ccc2c1C(C)(C)CCC2(C)C  0.41 µM
24. COc1nc2c(CCN3CCC(NCc4ccc5c(n4)NC(=O)CO5)CC3)c(Cl)cnc2cc1F  0.42 µM
25. CC(C)(C)c1cc2cc(Nc3ccnc4cc(-c5nccs5)ccc34)ccc2[nH]1  0.44 µM
26. CN(C)CCNCc1ccc(-c2ccc(-c3nc4ccc(F)cc4[nH]3)cc2)cc1  0.47 µM
27. O=C(c1ccccc1)N1CCC(CN2CCOC(c3ccccc3)(c3ccccc3)C2)CC1  0.5 µM
28. CO/C(=C\C=C\c1cc2cc(Cl)c(Cl)cc2[nH]1)C(=O)NCCCN1CCN(c2cccc(OCC(=O)Nc3ccccc3)c2)CC1  0.5 µM
29. Cc1cccc2[nH]c(-c3cccc(-c4cccc(NC(=O)C(C)CN5CCN(C)CC5)c4)c3)nc12 (stereo not drawn)  0.54 µM
30. Cc1cccc(Nc2nccc(NCC(O)c3ccc(C(F)(F)F)cc3)n2)c1 (stereo not drawn)  0.56 µM
31. Cc1ccc(N2CCc3c(-c4cc5cccnc5nc4C)cc(C)nc32)c(Cl)c1  0.58 µM
32. O=C(Nc1ccc2c(c1)CCN2C1CCN(Cc2cc(F)cc(F)c2F)C1)c1ccco1 (stereo not drawn)  0.59 µM
33. CNC(=O)CSc1nnc(-c2ccc(C)cc2)c(-c2ccc(C)cc2)n1  0.6 µM
34. O=C(Nc1ccc(C(=O)N(Cc2ccc3c(c2)OCO3)C2CCCC2)cc1)c1cccs1  0.65 µM
35. CC(Cc1ccc(NC(=O)[C@H](C)NCCc2cccc(Cl)c2)cc1)NCCc1cccc(Cl)c1 (stereo partly drawn)  0.66 µM
36. Cc1ccccc1C1CCN(C2CCC(NC(=O)/C=C/c3ccc4c(c3)OC(F)(F)O4)CC2)CC1 (stereo not drawn)  0.67 µM
37. O=C(/C=C/c1ccc(Cl)c(Cl)c1)N1CCC(CN2CCC(c3c[nH]c4cc5c(cc34)OCO5)CC2)CC1  0.68 µM
38. CCCCNCCOc1ccc(-c2nc(-c3ccccc3)c(-c3ccccc3)[nH]2)cc1  0.68 µM
39. CC(C)CCNC(=O)C1Cc2c([nH]c3cc(Cl)ccc23)C2(CCN(CCc3ccccc3)CC2)N1 (stereo not drawn)  0.69 µM
40. CN1CCC(C(=O)Nc2cccc(-c3ccc(-c4nc5ccc(F)cc5[nH]4)cc3)c2)CC1  0.71 µM
41. NC(=O)COc1c(C2CCN(CCCCNC(=O)c3ccc(-c4ccc(Cl)cc4)c(O)c3)CC2)ccc2c1CCCC2  0.71 µM
42. O=C(/C=C/c1ccc(Cl)c(Cl)c1)NCCCCCN1CCN(C(=O)Nc2ccc(C(F)(F)F)cc2)CC1  0.72 µM
43. Cc1cc([N+](=O)[O-])ccc1NC(=O)Nc1cccc(C(F)(F)F)c1  0.72 µM
44. CNCCNC(=O)C1Cc2c([nH]c3c(C)cccc23)C(c2ccc(Cl)c(Cl)c2)N1 (stereo not drawn)  0.72 µM
45. COc1ccc2c(NN=Cc3ccccc3[N+](=O)[O-])cc(C)nc2c1  0.72 µM
46. COc1cc2c(C3CCN(CC4CCN(C(=O)/C=C/c5ccc(Cl)c(Cl)c5)CC4)CC3)c[nH]c2cn1  0.73 µM
47. COc1ccc(NC(=O)/C=C/c2ccccc2Cl)cc1OCCN1CCN(c2ccncc2)CC1  0.73 µM
48. CN1CCN(c2ccc(-c3cc(-c4ccncc4)c(-c4ccc(Cl)c(O)c4)o3)cc2)CC1  0.74 µM
49. COc1cc2ncnc(Nc3ccc(OCc4ccccc4)c(OCc4ccccc4)c3)c2cc1OC  0.74 µM
50. CN1CCC(NCc2ccc(-c3ccc(Cl)cc3)cc2)CC1  0.75 µM
51. CCCCCN1CCC(CNS(=O)(=O)c2ccc(C(=O)Nc3cccc(C(F)(F)F)c3)cc2)CC1  0.75 µM
52. CC(c1cccc(S(=O)(=O)NCc2ccc(Cl)cc2Cl)c1)N1CCC(N2CCCCC2)CC1 (stereo not drawn)  0.75 µM
53. CCCCCCCN1CC[C@@H](CCC(O)c2ccnc3ccc(OC)cc23)[C@@H](CC)C1 (stereo partly drawn)  0.75 µM
54. CC(C)Cn1cc(C2CCN(CCN3CCC(CNC(=O)c4ccc(-c5ccc(C#N)cc5)cc4)CC3)CC2)c2ccccc21  0.79 µM
55. NC(N)=NN=Cc1c2ccccc2c(Cl)c2cc(Cl)ccc12  0.79 µM
56. O=C(/C=C/c1ccc(Cl)c(Cl)c1)NCCCCCCN1CCCN(C(=O)Nc2cccc(C(F)(F)F)c2)CC1  0.79 µM
57. O=C(NCCc1ccc(Cl)c(Cl)c1)c1ccc(CNC(=O)c2ccc(O)c(-c3ccc(Cl)c(Cl)c3)c2)cc1  0.81 µM
58. O=C(CSc1nccn1Cc1ccco1)Nc1cc(C(F)(F)F)ccc1Cl  0.82 µM
59. O=C(Nc1ccc(Cl)cc1)c1ccc(CN2CCCN(Cc3cccc(Cl)c3)CC2)cc1  0.83 µM
60. Cn1cccc1C(=O)C(=O)Nc1ccc(-c2ccc(-c3nc4ccc(F)cc4[nH]3)cc2)cc1  0.84 µM
61. Nc1c2ccccc2nc2cc(C(F)(F)F)ccc12  0.84 µM
62. Clc1cccc(C=NNc2nc(Nc3ccccc3)nc(Nc3ccccc3)n2)c1  0.84 µM
63. O=C(CCNc1ccnc(NCCc2ccccc2)n1)Nc1ccccc1  0.84 µM
64. c1cc(OCCN2CCCC2)ccc1CNC1CCN(CC2CCCCC2)CC1  0.84 µM
65. CC(=O)c1ccc(-n2ccnc2)cc1  0.85 µM
66. O=C(O)Cc1ccc(-c2c[nH]c3ncc(-c4cccc5ncccc45)cc23)cc1  0.85 µM
67. Cc1cc(N[C@@H](Cc2ccccc2)C(=O)Nc2ccccc2)nc(NCCc2ccccn2)n1  0.87 µM
68. Cc1cc(CN2CCCC(OC(c3ccc(F)cc3)c3ccc(F)cc3)C2)ccc1O (stereo not drawn)  0.88 µM
69. CC(Cc1ccc(CN2CCN(Cc3ccccc3)CC2)cc1)NCC(O)c1cccc(C(F)(F)F)c1 (stereo not drawn)  0.89 µM
70. Cc1c(Oc2ccc(-n3ccnc3)cc2)ncnc1N1CCC2(CC1)CNCc1ccccc12  0.89 µM
71. CN(C)CCOc1cc(NC(=O)Nc2ccc(Oc3ccccc3)cc2)ccc1I  0.89 µM
72. COc1cc(NC(=O)CCCCCCCCN2CCN(C)CC2)c2ncccc2c1  0.89 µM
73. CC(=O)c1ccc(N2CCN(CCC3(c4ccc(Cl)c(Cl)c4)COCN(C(=O)c4ccccc4)C3)CC2)cc1 (stereo not drawn)  0.92 µM
74. CCOC(=O)C1=C(C)NC2=C(C(=O)CC(C)(C)C2)C1c1ccc(Cl)cc1 (stereo not drawn)  0.92 µM
75. CN1CCN(c2cccc(-c3nnc(-c4ccc(OCC(=O)NCc5cccc(C(F)(F)F)c5)c([N+](=O)[O-])c4)o3)c2)CC1  0.96 µM
76. C[C@H](Cc1ccc(OCCNC[C@H](O)c2cccc(Cl)c2)cc1)NC[C@H](O)c1ccc(Cl)c(Cl)c1  0.96 µM
77. CC(C)c1ccc(NC(=O)c2ccc(C(=O)NC3CCN(Cc4ccccc4)CC3)cc2)cc1  0.98 µM
78. O=S(=O)(Nc1cccc(CCN2CCC(N3CCCCC3)CC2)c1)c1cccc(C(F)(F)F)c1  0.98 µM
79. Cc1nc2ccccc2n1C1C[C@H]2CC[C@@H](C1)N2CCCC1(c2ccccc2)CCN(C(=O)OCc2ccccc2)CC1 (stereo partly drawn)  1 µM
80. CCn1c(Cc2ccccc2)nnc1Sc1ccc([N+](=O)[O-])c(C#N)c1  1.01 µM
81. CC(C)C[C@H](Nc1ccnc(NCC2CCCCC2)n1)C(=O)NCCOc1ccccc1  1.02 µM
82. CCN1CCN(CCNc2c3ccccc3nc3ccccc23)CC1  1.02 µM
83. CC(C)n1c(C2CCN(CC3CCN(C(=O)/C=C/c4ccc(Cl)c(Cl)c4)CC3)CC2)nc2ccccc21  1.03 µM
84. O=C(Nc1ccccc1N1CCOCC1)c1ncoc1-c1ccccc1C(F)(F)F  1.06 µM
85. COc1ccc(CNC2CCN(C)CC2)cc1-c1ccc(S(=O)(=O)NCCc2ccccn2)cc1  1.09 µM
86. COc1ccc(NC(=O)CCNc2cc(C)nc(NCc3cccc(C)c3)n2)cc1  1.09 µM
87. Cn1cnc2c(Nc3ccncc3)nc(-c3ccc(OC(F)(F)F)cc3)nc21  1.1 µM
88. Clc1ccc(CNc2ccnc(NCc3cccnc3N3CCCC3)n2)c(Cl)c1  1.17 µM
89. Cc1cnc(Nc2cccnc2)nc1Nc1ccccc1C(=O)NC(C)C  1.2 µM
90. O=C(Nc1ccc2c(c1)CCN2C1CCN(Cc2cccc3cc[nH]c23)C1)c1ccco1 (stereo not drawn)  1.21 µM
91. Cc1ccc(Nc2nnc(SCC(=O)Nc3ccc(CN4CCCC4)cc3)s2)cc1  1.21 µM
92. COc1ccc(COc2cc(NCCCN)nc3ccccc23)cc1  1.28 µM
93. C[C@H](CNc1ccnc(Nc2ccc3[nH]c(=O)[nH]c3c2)n1)c1ccccc1  1.31 µM
94. Cc1cccc(C(=O)Nc2ccnc(N(C)CCCN(C)Cc3cccc(C#N)c3)c2)c1  1.32 µM
95. N=C(N)c1ccc(NC(=O)Cc2nc3ccc(C(=N)N)cc3[nH]2)cc1  1.37 µM
96. N#Cc1ccccc1N1CCN(C2CCC(NC(=O)c3n[nH]c4cc(C(F)(F)F)ccc34)CC2)CC1 (stereo not drawn)  1.37 µM
97. COc1cc(Cc2cnc(N)nc2N)cc(OCCCc2cc(OCc3ccccc3)no2)c1OC  1.87 µM

With `CC1=C(C(=O)NC2CCC(CN3CCC(c4c[nH]c5ccccc45)CC3)CC2)Cc2ccccc21` (stereo not drawn) the IC50 was 0.83 µM and 1 µM.
